Counter-ions that a name gives are not always drawn.
Legend:
[1] = target: T1, wild-type c-Kit receptor protein endogenously expressed in H526 cells (Homo sapiens, UniProt P10721); experiment: Assay for inhibition of c-Kit in intact cells (cell-based ELISA of SCF-induced tyrosine phosphorylation); conditions: read-out: results in the assay above (IC50, inhibition of SCF-induced tyrosine phosphorylation of c-Kit)
T1 construct: wild-type c-Kit receptor protein that is endogenously expressed in H526 cells; host or cells: H526 human small cell lung cancer cells
Protocol: I. Assay for Inhibition of c-Kit in Intact Cells
The ability of compounds to inhibit the tyrosine kinase activity of c-Kit was determined in a cell-based ELISA assay using the H526 cell line (ATCC # CRL-5811), which was originally derived from a human small cell lung cancer. The assay determines the ability of compounds to block ligand-stimulated tyrosine phosphorylation of the wild-type c-Kit receptor protein that is endogenously expressed in H526 cells. Cells are pre-incubated with compounds at various concentrations prior to addition of stem cell factor (SCF), the ligand for the c-Kit receptor tyrosine kinase. […] The phosphotyrosine content of the receptor protein is then monitored by quantitation of the degree of binding of an antibody that recognizes only the phosphorylated tyrosine residues within the captured protein. The antibody used has a reporter enzyme (e.g. horseradish peroxidase, HRP) covalently attached, such that binding of antibody to phosphorylated c-Kit can be determined quantitatively by incubation with an appropriate HRP substrate. […]
Comparison of the assay signals obtained in the presence of compound with those of the positive and negative controls (cells incubated in the presence or absence of SCF, with no compound added), allows the degree of inhibition of c-Kit receptor tyrosine phosphorylation to be determined over a range of compound concentrations. […]

[2] = system: MO7e human leukemia cells; conditions: cited from earlier work
[3] = system: MO7e human leukemia cells; conditions: cited from earlier work; remark: listed apart in the source

T1 sequence (P10721 26-976): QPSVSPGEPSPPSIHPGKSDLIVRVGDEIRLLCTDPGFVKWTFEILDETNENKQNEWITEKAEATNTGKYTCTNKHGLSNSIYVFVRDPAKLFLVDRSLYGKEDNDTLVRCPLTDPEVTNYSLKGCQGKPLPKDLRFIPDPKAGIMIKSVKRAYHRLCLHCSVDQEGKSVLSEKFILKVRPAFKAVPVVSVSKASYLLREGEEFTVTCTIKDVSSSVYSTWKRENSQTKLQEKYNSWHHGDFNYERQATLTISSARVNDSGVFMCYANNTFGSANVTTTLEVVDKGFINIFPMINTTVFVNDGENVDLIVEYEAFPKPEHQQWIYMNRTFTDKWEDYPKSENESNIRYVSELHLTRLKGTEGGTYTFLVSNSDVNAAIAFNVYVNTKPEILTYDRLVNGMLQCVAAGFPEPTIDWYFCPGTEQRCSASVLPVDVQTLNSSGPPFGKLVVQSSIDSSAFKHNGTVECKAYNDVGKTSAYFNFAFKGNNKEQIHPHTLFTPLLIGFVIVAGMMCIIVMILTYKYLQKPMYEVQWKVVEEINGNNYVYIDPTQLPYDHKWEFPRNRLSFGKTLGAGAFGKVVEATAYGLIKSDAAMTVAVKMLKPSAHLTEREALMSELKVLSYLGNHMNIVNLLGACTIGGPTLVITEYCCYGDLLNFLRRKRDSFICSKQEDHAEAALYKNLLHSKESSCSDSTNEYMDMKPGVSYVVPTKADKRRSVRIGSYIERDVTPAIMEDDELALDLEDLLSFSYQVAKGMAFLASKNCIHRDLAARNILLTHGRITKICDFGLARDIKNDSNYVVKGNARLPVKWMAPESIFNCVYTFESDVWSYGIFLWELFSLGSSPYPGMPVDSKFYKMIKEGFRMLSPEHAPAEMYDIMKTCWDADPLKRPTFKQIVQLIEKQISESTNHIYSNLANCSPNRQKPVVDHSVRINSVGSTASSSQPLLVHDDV

IC50 [1] [µM] | SMILES | Kit ligand-stimulated growth of MO7e human leukemia cells ([2]; Kit ligand-stimulated) | apoptosis ([2]; under Kit ligand-stimulated conditions, MO7e cells) | GM-CSF stimulated growth of MO7e human leukemia cells [3]
> 10 | O=C(NCc1cccnc1)c1ccc2c(c1)ncn2-c1ccc(OCCOc2ncc(C(F)(F)F)cc2Cl)cc1 [Compound H13, N-Pyridin-3-ylmethyl-1-{4-[2-(3-chloro-5-trifluoromethylpyridin-2-yloxy)ethoxy]phenyl}-1H-benzimidazole-5-carboxamide] |  |  | 
> 10 | O=C(NCc1cccnc1)c1ccc2c(c1)ncn2-c1cccc(NS(=O)(=O)c2cccc(Cl)c2)c1 [Compound Q5, 1-(3-{[(3-Chlorophenyl)sulfonyl]amino}phenyl)-N-pyridin-3-ylmethyl-1H-benzimidazole-5-carboxamide] |  |  | 
 | Cc1ccc(NC(=O)c2ccc(CN3CCN(C)CC3)cc2)cc1Nc1nccc(-c2cccnc2)n1 [Gleevec™, imatinib mesylate] | inhibited | induces apoptosis | not affected

Source: US7521448B2, “N-substituted benzimidazolyl c-Kit inhibitors” (OSI Pharmaceuticals, Inc., priority 2003, dated 2009)
